Laboratory results published in publication PMC9148287, “Cytotoxic and Radiosensitising Effects of a Novel Thioredoxin Reductase Inhibitor in Brain Cancers” (Molecular Neurobiology, 2022).

Legend:
TrxR [1] = test system: TrxR; parameters: method as in PMID 17320769; conditions: ovarian cancer cells; cited from earlier work
TrxR [2] = target: T1, TrxR (Homo sapiens, UniProt Q16881); test: TrxR activity assay (endpoint insulin reduction) on lysates of drug-treated cells; format: cell-based; conditions: 1 μM, 4 h; SF188, DAOY and UW228-3 cells
T1 construct: cells were trypsinised, counted and lysed in M-PER protein extraction reagent; endogenous in cells; host or cells: SF188, DAOY, UW228-3
T1 sequence (Q16881 151-649 limits assumed): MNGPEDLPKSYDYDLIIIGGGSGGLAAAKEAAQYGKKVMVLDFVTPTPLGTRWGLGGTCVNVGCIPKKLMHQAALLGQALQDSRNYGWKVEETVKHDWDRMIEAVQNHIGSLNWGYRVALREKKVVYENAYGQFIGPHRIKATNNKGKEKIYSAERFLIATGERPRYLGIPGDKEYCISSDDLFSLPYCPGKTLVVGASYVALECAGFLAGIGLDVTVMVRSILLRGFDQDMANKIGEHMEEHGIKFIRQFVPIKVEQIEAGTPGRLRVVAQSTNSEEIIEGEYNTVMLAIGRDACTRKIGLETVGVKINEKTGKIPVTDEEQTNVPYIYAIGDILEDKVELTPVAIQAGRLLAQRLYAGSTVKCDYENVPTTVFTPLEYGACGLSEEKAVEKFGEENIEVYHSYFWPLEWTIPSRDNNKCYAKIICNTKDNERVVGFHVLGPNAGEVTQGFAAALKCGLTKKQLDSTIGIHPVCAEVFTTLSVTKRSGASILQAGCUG
Method: Following incubation, with various concentrations of IQ10 or with 1 μM of auranofin, for 4/48 h, cells were trypsinised, counted and lysed in M-PER protein extraction reagent (Thermo Fisher) for 20 min. Lysates were analysed immediately or stored for future use at − 80 °C. The Bio-Rad protein assay kit (Bio-Rad Laboratories) was used to measure the protein concentration of each sample. TrxR activity was measured in 96-well plates using the endpoint insulin reduction assay as described previously with appropriate modifications. Briefly, the assay mixture contained the following in a final volume of 100 μL HE buffer (100 mM HEPES, pH 7.2; 5 mM EDTA): 80 µg of protein, 2 µM Escherichia coli Trx, 1 mg/ml bovine insulin and 1 mM NADPH. Duplicate samples were used, either with or without exogenous Trx enzyme. […] Absorbance was measured at 405 nm using a microplate reader (FLUOstar OPTIMA, BMG LABTECH). The absorbance of the sample lacking exogenous Trx was subtracted from that of the corresponding sample containing exogenous Trx. The difference in absorbance indicates TrxR function. The amount of functional TrxR was calculated from the standard curve, generated simultaneously, with pure enzymes. The TrxR activity was expressed as the percentage of DMSO-treated control.

KNS42 cells [3] = test: Growth assay (cell counts); format: cell-based; conditions: Homo sapiens, KNS-42, 2D normoxia
Method: (§1) Cells (2 × 10^5) were seeded in six-well plates, allowed to adhere overnight and then treated, in triplicate, with different concentrations of TMZ (0–1000 μM) or IQ10 (0–1 µM) for up to 72 h under normoxic or hypoxic conditions. DMSO was added to the negative control groups at the same volume equivalent to that in the treatment groups. For hypoxic experiments, cells were pre-incubated at 1% O2 for 24 h prior to drug treatment. Cells were then treated with different concentrations of IQ10 for up to an additional 72 h under hypoxia. Normoxic controls were always assessed in parallel to hypoxic-treated groups. Every 24 h after initiating drug treatment, cells were trypsinised and counted using a Countess system. Cell counts were recorded, analysed and plotted over the 72 h period.

SNB19 cells [4] = test: Growth assay (cell counts); format: cell-based; conditions: Homo sapiens, SNB-19, 2D normoxia
Method: as §1

UW228-3 cells [5] = test: Growth assay (cell counts); format: cell-based; conditions: Homo sapiens, 2D normoxia
Method: as §1

DAOY cells [6] = test: Clonogenic survival assay; format: cell-based; conditions: Homo sapiens, 48 h post-treatment
Method: (§2) Cells collected from the growth assay (48 h time point) were counted and plated at low-density, in triplicate, and incubated at 37 °C, 5% CO2, undisturbed, for colony formation. After 12 days (21 days for KNS42), colonies were fixed (50% methanol in PBS), stained (0.5% crystal violet solution) and counted manually. Any cluster of cells greater than 50 in number was counted as a surviving colony. The plating efficiency (PE) was calculated as number of control colonies formed/number of control cells seeded. For single-agent treatment, drug or radiation, the surviving fraction (SF) was calculated as follows: number of colonies formed after treatment / (number of cells seeded × PE). […]
(§3) Cells were seeded in ultra-low attachment round-bottom 96-well plates (Corning), aggregated by centrifugation (2000 rpm/10 min), and allowed to grow for 4 days under standard culture conditions to form mature spheroids. […] Viability was assessed using the resazurin reduction assay (CellTiter-Blue, Promega) following the manufacturer’s protocol. […] Fluorescence was measured with an excitation wavelength of 560 nm and emission 590 nm on a plate reader. […] Six spheroids per condition were assessed in each experiment. The clonogenicity of cells cultured in spheroids was assessed using conventional 2D clonogenic survival assay as described above. […]

KNS42 cells [7] = test: Clonogenic survival assay; format: cell-based; conditions: Homo sapiens, KNS-42; KNS42, 48 h post-treatment
Method: (§4) Cells collected from the growth assay (48 h time point) were counted and plated at low-density, in triplicate, and incubated at 37 °C, 5% CO2, undisturbed, for colony formation. After 12 days (21 days for KNS42), colonies were fixed (50% methanol in PBS), stained (0.5% crystal violet solution) and counted manually. Any cluster of cells greater than 50 in number was counted as a surviving colony. The plating efficiency (PE) was calculated as number of control colonies formed/number of control cells seeded. For single-agent treatment, drug or radiation, the surviving fraction (SF) was calculated as follows: number of colonies formed after treatment / (number of cells seeded × PE). For drug radiation combination experiments, cytotoxicity of drug treatment was accounted for by calculating SF as follows: number of colonies formed from each radiation dose / (number of cells seeded × PE × SF of drug-treated cell at 0 Gy).

SNB19 cells [8] = test: Clonogenic survival assay; format: cell-based; conditions: Homo sapiens, SNB-19; SNB19, 48 h post-treatment
Method: as §4

UW228-3 cells [9] = test: Clonogenic survival assay; format: cell-based; conditions: Homo sapiens; UW228-3, 48 h post-treatment
Method: as §2, §3

SF188 cells [10] = test: Clonogenic survival assay; format: cell-based; conditions: Homo sapiens, SF-188; SF188, 48 h post-treatment
Method: as §4
Cells were seeded, in triplicate, in 24-well plates, incubated overnight and transfected with either a pre-designed siRNA directed against human TrxR-1 (SI00050876, target sequence, 5′-[…]-3′, Qiagen) or mock-transfected with a scrambled siRNA (Allstars Negative Control siRNA, Qiagen). […]

SF188 cells [11] = test: Growth assay (cell counts); format: cell-based; conditions: Homo sapiens, SF-188, 2D normoxia
Method: as §1
(§5) Cells were seeded, in triplicate, in 24-well plates, incubated overnight and transfected with either a pre-designed siRNA directed against human TrxR-1 (SI00050876, target sequence, 5′-[…]-3′, Qiagen) or mock-transfected with a scrambled siRNA (Allstars Negative Control siRNA, Qiagen). Briefly, 2.5 μL of 2 μM siRNA and 4.5 μL HiPerFect transfection reagent (Qiagen) were combined in 100 μL medium (serum and antibiotic free) and incubated at room temperature for 10 min to allow complex formation. Reaction mixtures were then added to 400 μL of fresh medium. Medium was aspirated from wells and replaced with the appropriate 500 μL of transfection solution. After 48 h of incubation, the cells were re-plated, allowed to adhere overnight and treated with various concentrations of IQ10 for an additional 48 h. Growth curve and/or clonogenic survival assays were used as the endpoint to assess the drug effects. Western blotting analysis of TrxR and β-actin (as a loading control) were used to confirm that TrxR expression was suppressed for the duration of the experiment.

DAOY cells [12] = test: Growth assay (cell counts); format: cell-based; conditions: Homo sapiens, 2D normoxia
Method: as §1, §5

DAOY cells [13] = test: Intracellular ROS levels (H2DCF-DA flow cytometry); format: cell-based, human; conditions: 1 mM H2O2 1 h
Method: (§6) Intracellular ROS levels were measured as described previously. Briefly, cells were treated with various concentrations of IQ10 for 4 h either alone or with subsequent exposure to 1 mM H2O2 (ROS positive control) for 1 h. Cells treated with DMSO, at the same dilution ratio as IQ10, were set as negative controls. Cells were then incubated with the cell-permeable dye 2′,7 ′-dichlorodihydrofluorescein diacetate (H2DCF-DA, Sigma) in fresh medium at a final concentration of 1 μM at 37 °C for 30 min. Cells were harvested and intracellular ROS levels assessed by measurement of fluorescence using a MACSquant flow cytometer (Miltenyi Biotec). A gate was set to include only healthy living cells in the analysis. Data were analysed using FlowJo 7.6.1 software (Tree Star) to obtain the median fluorescence intensity (MFI) of each group representing the amount of intracellular ROS generation.

UW228-3 cells [14] = test: Intracellular ROS levels (H2DCF-DA flow cytometry); format: cell-based, human; conditions: UW228-3, 1 mM H2O2 1 h
Method: as §6

In the case of CC(=O)OC[C@H]1O[C@@H]([S-])[C@H](OC(C)=O)[C@@H](OC(C)=O)[C@@H]1OC(C)=O.CCP(CC)CC.[Au+] [auranofin], the “concentrations inhibiting TrxR” value (TrxR [1]) is given as “nanomolar concentrations” and the “average TrxR inhibition” value (TrxR [2]) is given as 83–95%.

With Cn1nnc2c(C(N)=O)ncn2c1=O [TMZ, temozolomide] the IC50 (KNS42 cells [3]; KNS42, 24 h) was over 1000 µM, the IC50 (KNS42 cells [3]; KNS42, 48 h) was over 1000 µM and the IC50 (KNS42 cells [3]; KNS42, 72 h) was 731 ± 24.3 µM. It also gave an IC50 (SNB19 cells [4]; SNB19, 24 h) of over 1000 µM, an IC50 (SNB19 cells [4]; SNB19, 48 h) of over 1000 µM and an IC50 (SNB19 cells [4]; SNB19, 72 h) of 980 ± 281 µM. The IC50 (UW228-3 cells [5]; UW228-3, 24 h) was over 1000 µM, the IC50 (UW228-3 cells [5]; UW228-3, 48 h) was 314 ± 17.8 µM and the IC50 (UW228-3 cells [5]; UW228-3, 72 h) was 148 ± 14.7 µM. For the same compound, the IC50 (DAOY cells [6]) was 464 ± 20.1 µM, the IC50 (KNS42 cells [7]) was 49.5 ± 11.4 µM and the IC50 (SNB19 cells [8]) was 63.7 ± 10 µM. It also gave an IC50 (UW228-3 cells [9]) of 93.1 ± 30 µM, an IC50 (SF188 cells [10]) of 15.2 ± 0.9 µM and an IC50 (SF188 cells [11]; SF188, 24 h) of over 1000 µM. For the same compound, the IC50 (SF188 cells [11]; SF188, 48 h) was 321 ± 86.8 µM, the IC50 (SF188 cells [11]; SF188, 72 h) was 188 ± 24.1 µM and the IC50 (DAOY cells [12]; 24 h) was 547 ± 11.6 µM. It also gave an IC50 (DAOY cells [12]; 48 h) of 248 ± 49.8 µM and an IC50 (DAOY cells [12]; 72 h) of 162 ± 14.3 µM.

With OO [H2O2] the “intracellular ROS levels compared to control” value (DAOY cells [13]) was 1.4 fold and the “intracellular ROS levels compared to control” value (UW228-3 cells [14]) was 1.5 fold.
